# Tests used:
# [1] = test system: Drosophila melanogaster; assay: whole plant or invertebrate; details: 100 μM
# Description: A capillary feeding assay (CAFE) was used to quantify the volume of sucrose solution consumed over a period of time; it was performed essentially as described in W. W. Ja, G. B. Carvalho, E. M. Mak, N. N. de la Rosa, A. Y. Fang, J. C. Liong, T. Brummel, S. Benzer, Prandiology of Drosophila and the CAFE assay. Proceedings of the National Academy of Sciences of the United States of America 104, 8253-8256 (2007); published online EpubMay 15 (10.1073/pnas.0702726104). […] One adult fly was placed into a 2 mL glass vial with a screw lid that was pierced with a glass microcapillary tube having a truncated 200-0 pipette tip. The microcapillary tubes contained 5% (wt/vol) sucrose solution with a 5 μl mineral oil overlay to minimize evaporation. […] Concentrations of 100 μM dopamine and 100 μM fluphenazine were used to determine the influence of those agents on fly feeding. […] All dead flies were excluded from all time points of the study regardless of the time of death. Mean (n>25) values are shown in all figure panels, depicting total consumption.
# Times spent feeding in Kir1 and GFP genetic knockdown studies were compared to control values for each day using one-way ANOVA with a Dunns multiple comparisons post-test. Statistical significance for all studies was P<0.05.
# [2] = test system: honey bees (Apis mellifera); assay: acute topical toxicity in adult honey bees; assay type: in vivo; details: 48 h, VU041 1 mg/bee (~10 μg/mg), bifenthrin 0.1 μg/bee
# Description: Frames of late-stage honeybee (A. mellifera) pupae were taken from four colonies at The Ohio State University Honey Bee Lab in Wooster, Ohio, and maintained in a dark humid incubator at 34° C. (Darwin Chambers Co., St. Louis, Mo., model H024) until adult bees emerged. New adults were brushed from frames daily, placed in wooden screen cages (21×14×12 cm), and provided with 1:1 (w/w) sucrose in water.
# Acute toxicity experiments in adult bees were performed as follows: Twenty-four hours after emergence, adult honey bees in cages were anaesthetized with carbon dioxide, divided into groups of approximately 20 bees each, and placed in plastic-coated paper cups (177 cm^3; UNIQ Paper Yogurt Cup, Frozen Dessert Supplies, Gilbert, Ariz.) covered with cotton cheesecloth. […] As a positive control, some bees were treated with 3 μl of bifenthrin (0.1 μg/μl). Negative control bees were treated with 3 μl of solvent. Applications were made using a 20 μl micropipette (Fisherbrand Finnpipette F2, Fisher Scientific, Pittsburgh, Pa.) with a disposable plastic tip. […] Toxicity to honey bees was recorded at 48 h, rather than the 24 h used for mosquitoes, to allow for the possibility of delayed toxicity due to the larger body size of the bee. Bees showing no movement 48 h after treatment were scored as dead.
# [3] = test system: isolated tick salivary gland; assay: fluid secretion (salivation) in the isolated tick salivary gland, modified Ramsay assay; parameters: species or system Amblyomma americanum; details: for Effect on Salivation at 10 minutes (reduction) / reduction of salivary output / saliva secretion compared to control: isolated tick salivary gland
# [4] = test system: An. gambiae; details: cited from earlier work; for Resistance Ratio (Akron compared to G3 strain): ED50 Akron/ED50 G3
# [5] = test system: isolated tick salivary gland; assay: ion secretion in saliva of the isolated tick salivary gland; parameters: species or system Amblyomma americanum
# [6] = test system: Aphis gossypii; assay: aphid feeding on treated cotton leaves, electrophenegraph technique; assay type: in vivo; details: barium chloride at 300 micromolar
# Description: FIGS. 14(A) and (B) depict measurements of aphid (Aphis gossypi) feeding on cotton leaves, as measured through the electrophenegraph technique; on control leaves and on leaves treated with the Kir inhibitor barium, respectively.
# In aphids, a specific Kir channel blocker (barium chloride at 300 micromolar) was coated onto leaf tissue, and the feeding behavior of the adult aphid was analyzed through the classical electrophenegraph technique.
# [7] = target: T1, AnKir1 (Anopheles gambiae, UniProt A0A075M2J8); assay: thallium (Tl+) flux assay; assay type: cell-based; details: SAR libraries; read-out: AnKir1 IC50
# Description: The thallium flux assay is an in vitro method of measuring conductance through a potassium ion channel. Potassium channels are also permeable to thallium ions. The modulation of a K^+ channel will thus increase or decrease thallium ion flow through the channel and thus, alter the observed fluorescence of a thallium-specific indicator dye.
# After 1 hr incubation at room temperature, the dye-loading solution was washed from the plates and replaced with 20 μL/well of assay buffer. The plates were transferred to a Hamamatsu Functional Drug Screening System 6000 (FDSS6000; Hamamatsu, Tokyo, Japan), where 20 μL/well of each of the test compounds in assay buffer was added and allowed to incubate with the cells for 20 min. After incubation, a baseline recording was collected at 1 Hz for 10 s (excitation 470±20 nm, emission 540±30 nm); a thallium stimulus buffer was then added (10 μL/well), and data were then collected for an additional 4 min. […] To ensure the small-molecule vehicle DMSO had no direct effect on AnKir1-dependent Tl^+ flux, the assay's tolerance to different doses of DMSO was evaluated. The robustness and reproducibility of the assay was determined by comparing Tl^+ flux through tetracycline-induced and tetracycline-free cells. The Z′ value was calculated as:
# Z′=1−(3SDp+3SDn)/|meanp+meann| where SD is standard deviation, and p and n are control and uninduced flux values, respectively. To compare the effect of DMSO on AnKir1-mediated Tl^+ flux, a one-way ANOVA was performed with a Tukey's multiple comparison test. Prism software (GraphPad Software) was used to generate CRC from Tl^+ flux. Half-inhibition concentration (IC50) values were calculated from fits using a four parameter logistic equation.
# Test compounds were transferred to daughter, 384-well polypropylene plates (Greiner Bio-One, Monroe, N.C.) with an Echo555 liquid handler (Labcyte, Sunnyvale, Calif.), and then diluted into assay buffer to generate a 2× stock in 0.6% DMSO (0.3% final). […] Concentration-response curves (CRCs) were generated by screening compounds at 3-fold dilution series (1 nM-30 μM).
# Tl^+ flux data were analyzed using Excel (Microsoft Corp, Redmond, Wash.) with XLfit add-in (IDBS, Guildford, Surrey, UK), OriginPro (Origin Lab, Northampton, Mass.), and GraphPad Prism (GraphPad Software, San Diego, Calif., USA) software. Raw data were opened in Excel and each data point in a given trace was divided by the first data point from that trace (static ratio) followed by subtraction of data points from control traces generated with vehicle controls. The slope of the fluorescence increase beginning 5 s after Tl^+ addition and ending 15 s after Tl^+ addition was calculated.
# To perform Tl+ flux assays, stably transfected T-Rex-HEK-293 cells expressing AnKir1 channels were cultured overnight in 384-well plates (20,000 cells/20 μL/well), black-walled, clear-bottomed BD Pure Coat amine-coated plates (BD, Bedford, Mass.) with a plating media containing DMEM, 10% dialyzed FBS and 1 μg/mL tetracycline. […] Following 1 hr incubation at room temperature, the dye-loading solution was washed from the plates and replaced with 20 μL/well of assay buffer.
# [8] = target: hKir2.1 (Homo sapiens (Human), UniProt P63252); assay: thallium (Tl+) flux assay; assay type: cell-based; details: SAR libraries; read-out: hKir2.1 IC50
# [9] = target: T1, AnKir1; assay: whole-cell patch clamp electrophysiology; assay type: cell-based; details: whole-cell patch clamp, HEK-293T cells
# Description: Patch electrodes were pulled from silanized 1.5 mm outer diameter borosilicate microhematocrit tubes using a P-1000 Flaming/Brown micropipette puller (Sutter Instrument, Novato Calif., USA). Electrode resistance ranged from 2-4 MΩ. Whole-cell currents were recorded under voltage-clamp conditions using an Axopatch 200B amplifier (Molecular Devices, Sunnyvale, Calif.). Electrical connections to the amplifier used Ag/AgCl wires and 3 M KCl/agar bridges. Electrophysiological data were collected at 5 kHz and filtered at 1 kHz. Data acquisition and analysis were performed using pClamp 9.2 software (Axon Instruments).
# Transiently transfected HEK-293T cells expressing AnKir1 were voltage-clamped in the whole-cell configuration of the patch clamp technique. The extracellular bath solution contained (in mM): 135 NaCl, 5 KCl, 2 CaCl2), 1 MgCl2, 5 glucose, 10 HEPES free acid, pH 7.4, 290 mOsm/kg H2O. The pipette solution contained (in mM): 135 KCl, 2 MgCl2, 1 EGTA, 10 HEPES free acid, 2 Na2ATP (Roche, Indianapolis, Ind.), pH 7.3, 275 mOsm. Cells were voltage clamped at −75 mV, stepped to −120 mV for 200 msec, and then ramped to 120 mV at a rate of 2.4 mV/msec. Concentration-response curves (CRCs) were constructed by measuring the effects of increasing doses of inhibitors on AnKir1 currents at −120 mV. All recordings were made at room temperature (20-23° C.).
# [10] = test system: An. gambiae; assay: topical toxicity bioassay in adult female An. gambiae; assay type: in vivo, Anopheles gambiae; details: 24 h
# Description: Topical toxicity bioassays were performed on non-blood-fed adult female mosquitoes. The mosquitoes were chilled on ice for 1-3 minutes, during which 200 nL of compound (dissolved in 95% ethanol) was applied onto the abdomen of each insect with a handheld Hamilton® micro-applicator. […] […] The three resulting ED50 values were averaged. An ethanol-only treatment was included in each experiment as a negative control. Treated mosquitoes were transferred to small cages with access to 10% sucrose and held under rearing conditions for 24 h. Mortality was recorded at 24 h.
# [11] = test system: Aedes aegypti mosquitoes; assay: mosquito blood feeding with compound exposure; assay type: in vivo; details: compound added to blood
# Source text: Tolbutamide and glybenclamide are inhibitors of ATP-gated Kir channels.
# T1 sequence (A0A075M2J8 1-555): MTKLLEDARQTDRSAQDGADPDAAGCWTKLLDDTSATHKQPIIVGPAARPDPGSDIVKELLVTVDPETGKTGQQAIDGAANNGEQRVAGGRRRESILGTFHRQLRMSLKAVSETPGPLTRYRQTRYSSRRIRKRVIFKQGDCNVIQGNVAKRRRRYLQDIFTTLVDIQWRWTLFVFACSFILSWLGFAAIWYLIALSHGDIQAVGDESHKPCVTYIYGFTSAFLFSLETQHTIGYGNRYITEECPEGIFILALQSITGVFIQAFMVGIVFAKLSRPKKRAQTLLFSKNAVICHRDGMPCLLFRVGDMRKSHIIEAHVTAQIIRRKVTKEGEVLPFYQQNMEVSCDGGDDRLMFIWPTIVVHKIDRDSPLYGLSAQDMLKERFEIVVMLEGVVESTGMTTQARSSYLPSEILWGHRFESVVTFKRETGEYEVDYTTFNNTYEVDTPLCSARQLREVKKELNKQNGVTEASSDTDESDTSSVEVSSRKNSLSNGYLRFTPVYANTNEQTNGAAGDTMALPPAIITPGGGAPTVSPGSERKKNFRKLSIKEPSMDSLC
# hKir2.1, sequence (P63252 whole entry): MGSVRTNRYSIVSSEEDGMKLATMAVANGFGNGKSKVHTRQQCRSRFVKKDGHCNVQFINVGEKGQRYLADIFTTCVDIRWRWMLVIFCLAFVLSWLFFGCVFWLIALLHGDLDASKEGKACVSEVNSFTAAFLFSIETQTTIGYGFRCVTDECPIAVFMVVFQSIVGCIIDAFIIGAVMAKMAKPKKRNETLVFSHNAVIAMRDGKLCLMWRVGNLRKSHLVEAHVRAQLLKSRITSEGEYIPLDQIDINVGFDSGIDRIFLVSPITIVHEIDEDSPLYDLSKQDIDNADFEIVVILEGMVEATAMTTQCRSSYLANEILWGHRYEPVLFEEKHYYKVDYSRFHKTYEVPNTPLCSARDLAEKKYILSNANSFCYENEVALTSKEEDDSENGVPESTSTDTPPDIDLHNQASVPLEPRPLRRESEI
compound,measurement,setting,value
"NCCc1ccc(O)c(O)c1 [Dopamine, reference compound]",increase in sucrose consumption vs control,[1]; 1 day PE,1.7 fold
same,increase in sucrose consumption vs control,[1]; 2 days PE,1.3 fold
same,increase in sucrose consumption vs control,[1]; 3 days PE,1.2 fold
same,increase in sucrose consumption vs control,[1]; 4 days PE,1.4 fold
"Cc1c(COC(=O)[C@@H]2[C@H](/C=C(\Cl)C(F)(F)F)C2(C)C)cccc1-c1ccccc1 (racemic) [bifenthrin, reference compound]",mortality of adult honey bees,[2],100%
CC(NC(=S)Nc1ccncc1)C(C)(C)C (stereo not shown) [DRS-1],Effect on Salivation at 10 minutes (reduction),[3],Reduced ~80%
CC1(C)C(C=C(Cl)Cl)C1C(=O)OCc1cccc(Oc2ccccc2)c1 (stereo not shown) [Permethrin],Resistance Ratio (Akron compared to G3 strain),[4],33 fold
same,"ED50, Akron Strain","[4]; topical, Akron strain, from reference 21",0.001 µg/mg
same,"ED50, G3 Strain","[4]; topical, G3 strain, from reference 21",3e-07 µg/mg
[Ba+2].[Cl-].[Cl-] [barium chloride],transepithelial fluid secretion,"[3]; control 270 nl/5 min, preliminary",141 nl/5 min
same,reduction of salivary output / saliva secretion compared to control,[3],approximately 60%
same,K+ and Na+ ion secretion rates in salivary droplets,[5],significantly reduced
same,"feeding phases (egestion, salivation, ingestion)",[6],inability of treated aphids to salivate
O=C(Cn1nc(C(F)(F)F)c2c1CCCC2)N1CCOc2ccccc21 [Compound 14],IC50,[7],4.6 µM
CC1CC(C)CN(C(=O)Cn2nc(C(F)(F)F)c3c2CCCC3)C1 (stereo not shown) [Compound 13],IC50,[7],4.5 µM
same,IC50,[8],> 30 µM
O=C(Cn1ncc2c1CCOC2)N1CCCc2ccccc21 [VU730],IC50,[9],717 nM
same,IC50,[7],2.4 µM
same,IC50,[8],> 30 µM
same,topical toxicity,[10]; adult females,ED50 similar to that for VU041
same,"ED50 (95% confidence limits), G3 Strain","[10]; topical, G3 strain, synergists 500 ng/insect four hours prior",2.4 (2.1-2.9) A μg/mg
CC(C)(C)CNC(=C[N+](=O)[O-])Nc1ccncc1 [DRS-4],Effect on Salivation at 10 minutes (reduction),[3],Reduced ~83%
CNCCC(Oc1ccc(C(F)(F)F)cc1)c1ccccc1 (stereo not shown) [fluoxetine],reduction of salivary output / saliva secretion compared to control,[3],98%
O=C(Cn1nc(C(F)(F)F)c2c1CCCC2)N1CCCC(c2ccccc2)C1 (stereo not shown) [Compound 12],IC50,[7],5.6 µM
same,IC50,[8],> 30 µM
CNC(=O)Oc1ccccc1OC(C)C [propoxur],Resistance Ratio (Akron compared to G3 strain),[4],101 fold
CC(NC(=NC#N)Nc1cccnc1)C(C)(C)C (stereo not shown) [DRS-3],Effect on Salivation at 10 minutes (reduction),[3],Reduced ~100%
O=C(NCCO[N+](=O)[O-])c1cccnc1 [nicorandil],cations (K+ and Na+) concentrations excreted from the salivary glands,[5],significant reduction
O=C(CN1CCCc2ccccc21)N1CCCc2ccccc21 [Compound 6],IC50,[7],8 µM
O=C(Cn1nc(C(F)(F)F)c2c1CCCC2)N1CCCC2CCCCC21 (stereo not shown) [Compound 9],IC50,[7],6.7 µM
same,IC50,[8],> 30 µM
O=C1CCCc2c1ccn2CC(=O)N1CCCc2ccccc21 [Compound 4],IC50,[7],12.1 µM
same,IC50,[8],> 30 µM
CCCCNC(=O)NS(=O)(=O)c1ccc(C)cc1 [tolbutamide],reduction of total volume of blood consumed,[11],99%

# — patent US11632953B2, “Method for controlling hematophagous or sap-feeding arthropods” (Board of Supervisors of Louisiana State University and …, priority 2016, dated 2023)
